The values that follow come from ChEMBL document CHEMBL1157539, “Thousands of chemical starting points for antimalarial lead identification” (Nature, 2010).

The experiment has as its system Plasmodium falciparum. Put plainly: GSK_TCMDC: Inhibition of Plasmodium falciparum 3D7 in whole erythrocytes, using parasite LDH activity as an index of growth. The class given is functional, organism-based. To be noted: Plasmodium falciparum, 3D7.
Compound `Cc1ccc(Nc2nc(N/N=C/c3cccc([N+](=O)[O-])c3)nc(Nc3ccccc3)n2)c(C)c1` returned an XC50 of 626 nM.

The compound `CCN(CC)CCN(Cc1ccc(-c2ccc(C(F)(F)F)cc2)cc1)C(=O)Cn1c(CCc2cccc(F)c2F)nc(=O)c2cc(F)c(F)cc21` had an XC50 of 833 nM.

In turn, `COc1cc(Cc2cnc(N)nc2N)cc(CC(C)O)c1O` (stereo not drawn) yielded an XC50 of 843 nM.

`COc1nc2c(CCN3CC[C@H](NCc4cc(C#N)c5c(c4)CCO5)[C@H](O)C3)ccnc2cc1F`: the XC50 worked out at 350 nM.

The compound `COCCCNC(=O)C1CCN(C(c2ccc(Cl)cc2)c2ccc(Cl)cc2)CC1` showed an XC50 of 920 nM.

Turning to `O=C1CCCN1CCCNCc1ccc(-c2cccc(-c3nc4ccccc4[nH]3)c2)cc1`, the XC50 came to 1020 nM.

Take `COc1cc(Cc2cnc(N)nc2N)cc(OC)c1OCCCCC(=O)O`: the XC50 was 1140 nM.

`CCOc1cc(C(=O)NC2CCN(Cc3ccccc3)C2)ccc1-c1nc2cc(Cl)ccc2[nH]1` (stereo not drawn) returned an XC50 of 1010 nM.

The compound `CC(C)(C)OC(=O)n1cc(C2CCN(CCCC34CCCc5cccc(c53)NC4=O)CC2)c2ccncc21` (stereo not drawn) showed an XC50 of 876 nM.

Consider `CCOC(=O)c1ccc(NC(=O)Nc2cccc(-c3ccc(-c4nc5ccccc5[nH]4)cc3)c2)cc1`, for which the XC50 turned out to be 212 nM.

On to `COc1ccc2nccc([C@@H](O)CN3CCC(NC(=O)c4cc5c(F)cc(F)cc5[nH]4)CC3)c2n1`, for which the XC50 is 1390 nM.

Take `COc1cc(OC)c(NC(=O)Nc2ccnc3ccccc23)cc1Cl`: the XC50 was 751 nM.

Compound `N=c1ccn(CC(=NO)c2ccc(Cl)c(Cl)c2)cc1` registered an XC50 of 943 nM.

`CCOC(=O)c1ccc(NCc2ccccn2)cc1` came in with an XC50 of 626 nM.

With `Nc1nc(N)c2c(ccc3c2ccn3Cc2ccc(Br)cc2)n1`, the XC50 stood at 3.2 nM.

Compound `COc1ccc(CNC2Cc3ccccc3C2)cc1-c1ccc(S(=O)(=O)NCCN2CCCC2)s1` displayed an XC50 of 195 nM.

The compound `Nc1cccc(CNCc2cccc(-c3cccc(-c4nc5cc(F)ccc5[nH]4)c3)c2)c1` showed an XC50 of 692 nM.

`CN(C)CC1CCCN1Cc1ccccc1-c1cnn(C)c(=O)c1Oc1cccc(C#N)c1` (stereo not drawn) displayed an XC50 of 1340 nM.

On to `Cc1ccc(S(=O)(=O)N(CCCNCc2cccc(O)c2)c2ccccc2)cc1`, for which the XC50 was found to be 767 nM.

Consider `COc1ccc(CN2CCCC(C(=O)c3ccc(C(F)(F)F)cc3)C2)c(O)c1` (stereo not drawn), for which the XC50 is 849 nM.

The compound `CC(C)C[C@@H](/C=N/N1CCOC1=O)NC(=O)[C@H](CC(C)C)NC(=O)c1ccc(F)cc1` registered an XC50 of 1170 nM.

Compound `COc1ccccc1C1CCN(CCN2CCC(NC(=O)c3ccc(-c4ccc(C#N)cc4)cc3)CC2)CC1` registered an XC50 of 792 nM.

`COc1ccc(CCNCCCCCNCCc2ccc(Cl)cc2)cc1OC` gave an XC50 of 741 nM.

On to `Cc1cc(NC(=O)NCCN2CCC(NC(=O)c3ccc(Cl)cc3)CC2)c2ccccc2n1`, for which the XC50 turned out to be 381 nM.

`CCN(CC)CC#Cc1ccc2[nH]c(C)c(Cl)c(=O)c2c1` gave an XC50 of 702 nM.

Take `O=C(CC1NC(=O)c2ccccc21)Nc1ccc(-c2ccc(-c3nc4cc(C(F)(F)F)ccc4[nH]3)cc2)cc1` (stereo not drawn): the XC50 was 470 nM.

Take `COc1ccc(NC(=O)NC2CCN(CCCCCNC(=O)/C=C/c3ccc(Cl)c(Cl)c3)C2)c(OC)c1` (stereo not drawn): the XC50 is 823 nM.

As for `O=C(NC1CCN(c2ccc(F)cc2[N+](=O)[O-])CC1)c1cccs1`, the XC50 was 675 nM.

Compound `Cc1ccccc1Nc1nc(NCCCO)c2ccccc2n1` registered an XC50 of 407 nM.

`CC(=O)Oc1c(C(=O)C2CCC(C(C)(C)C)CC2)c(OC(C)=O)c2ccccc2c1OC(C)=O` (stereo not drawn): the XC50 is 268 nM.

With `CCOC(=O)c1c(-c2ccccc2)c(C(=O)OCC)n2ccccc12`, the XC50 was 614 nM.

With `Cc1cnc(CNCc2ccc(S(=O)(=O)Nc3ccc(Oc4cccc(Cl)c4)cc3)cc2)cn1`, the XC50 was determined as 766 nM.

For the compound `Cc1cc(N[C@@H](CC(C)C)C(=O)Nc2ccccc2)nc(Nc2ccccc2)n1`, the XC50 is 728 nM.

As to `CCN(CC)CCCNc1c2ccccc2nc2ccccc12`, the XC50 was determined as 753 nM.

Compound `COCCNC(=O)c1ccc(OC2CCN(Cc3ccc(F)c(F)c3)CC2)c(Cl)c1` gave an XC50 of 1490 nM.

For `CC(=O)Nc1ccc(OCCN(Cc2ccccc2C(F)(F)F)c2ccc(C#N)c(C(F)(F)F)c2)cc1`, the XC50 came out at 443 nM.

As to `Cc1noc(C)c1-c1cccc(CNCc2cccc(-c3cccc(-c4nc5cc(F)ccc5[nH]4)c3)c2)c1`, the XC50 was found to be 176 nM.

In the case of `COc1cc(NC(=O)N2CCc3ccc(OCCN4CCCCC4)cc32)cc(C(F)(F)F)c1`, the XC50 stood at 266 nM.

As to `Cc1cccc(CN2CCC(C(=O)Nc3ccc(-c4nc5ccccc5[nH]4)cc3)CC2)n1`, the XC50 was found to be 919 nM.

`Nc1nc(N)c2c(n1)CCc1cc(Br)ccc1-2` came in with an XC50 of 1130 nM.

Compound `Cc1cccc2nc(-c3ccc(-c4ccc(CN5CCN(c6ccncc6)CC5)cc4)s3)[nH]c12` displayed an XC50 of 114 nM.

`CCC[C@@H]([C@@H](CC1CCCCC1)C(=O)N[C@H](C(=O)Nc1nccs1)C(C)(C)SC)N(O)C=O` returned an XC50 of 152 nM.

In the case of `O=C(/C=C/c1ccc(Cl)c(Cl)c1)NCC(CCCN1CCC(c2c[nH]c3ccccc23)CC1)c1ccccc1` (stereo not drawn), the XC50 was 813 nM.

Consider `CC(C)NC(=N)NN=Cc1ccc(Cl)c(Cl)c1`, for which the XC50 came out at 534 nM.

With `Cc1cnc(C[S+]([O-])c2nc3cc(C(F)(F)F)ccc3[nH]2)cc1OCc1ccccc1` (stereo not drawn), the XC50 amounted to 742 nM.

Turning to `CN(C)CCOc1ccc2c(c1)CN(C)CC2c1ccccc1` (stereo not drawn), the XC50 came to 1110 nM.

Take `CC(C)Sc1nc2c(c(=O)n1CCc1ccccc1)C1(CCCCC1)Cc1ccccc1-2`: the XC50 amounted to 1870 nM.

With `COC(=O)c1ccc2nc(-c3cc(OC)c(O)c(C(=O)NC4CCN(Cc5ccccc5)CC4)c3)[nH]c2c1`, the XC50 came to 1180 nM.

In turn, `CNCCNCc1cccc(-c2cccc(-c3nc4cc(F)ccc4[nH]3)c2)c1` had an XC50 of 670 nM.

Compound `Fc1ccc2[nH]c(-c3ccc(-c4ccc(CNCCc5cccnc5)cc4)s3)nc2c1` returned an XC50 of 236 nM.

`CC(C(=O)NC1CCN(c2ccnc(Nc3ccc(F)cc3)n2)C1)c1ccc(Cl)cc1` (stereo not drawn) had an XC50 of 860 nM.

Turning to `O=C(Nc1cccc(-c2ccc(-c3nc4cc(F)ccc4[nH]3)cc2)c1)c1cccnc1`, the XC50 worked out at 612 nM.

Consider `Cc1cccc2nc(-c3ccc(-c4ccc(CN5CCCCC5)cc4)cc3)[nH]c12`, for which the XC50 came to 589 nM.

`COc1ccc(CNC(=O)c2cnc3c(O)cccc3c2Nc2cccc(NC(=O)c3ccc(-c4ccccc4)cc3)c2)cc1` gave an XC50 of 941 nM.

`Fc1cccc(C=NN=c2cc[nH]c3ccccc23)c1` displayed an XC50 of 839 nM.

Compound `COc1ccc(CNC(=O)c2cnc3cc(-c4c(C)noc4C)ccc3c2Nc2ccccc2C(C)(C)C)cc1` showed an XC50 of 1300 nM.

Compound `CCCN(CCC)CCCNc1ccc(C(=O)Nc2ccc(C)c(F)c2)cc1[N+](=O)[O-]` came in with an XC50 of 539 nM.

In the case of `O=C(NC1CCN(Cc2ccc(F)cc2)CC1)c1ccc(-c2cccc(C(F)(F)F)c2)s1`, the XC50 was 1360 nM.

`CN1CCC(NCc2cccc(-c3ccc(S(=O)(=O)NCCc4ccccn4)c(F)c3)c2)CC1` registered an XC50 of 918 nM.

The compound `O=C(N[C@@H](CC1CCCCC1)C(=O)NCCN1CCCC1)c1ccc(O)c(-c2cccc(C(F)(F)F)c2)c1` had an XC50 of 760 nM.

For `O=C(/C=C/c1ccc(F)c(Br)c1)NCCCCCN1CCC(c2c[nH]c3ccccc23)CC1`, the XC50 came out at 864 nM.

The compound `CN1CCCN(c2ccnc3cc4c(cc23)N(C(=O)c2ccc(C(F)(F)F)cc2)CC4)CC1` registered an XC50 of 794 nM.

In turn, `CCN(CCCN1CCCCC1)c1cc(C)nc(Nc2ccc(C)cc2C)n1` registered an XC50 of 351 nM.

For `O=C(CCc1ccccc1)NC(c1ccc(Cl)cc1)c1ccc2cccnc2c1O` (stereo not drawn), the XC50 was 847 nM.

`CCN(CC)CCCC(C)N/C(=N\c1ccccc1Br)Nc1ccc(C#N)cc1O` (stereo not drawn): the XC50 was found to be 1040 nM.

Compound `CCOC(=O)c1c(C)n(C2CCCCCC2)c2cc(Br)c(O)cc12` showed an XC50 of 1200 nM.

On to `Nc1ncc(-c2ccc3[nH]ccc3c2)c2ccc(-c3ccncc3)cc12`, for which the XC50 turned out to be 542 nM.

With `S=C(Nc1cccc(Cl)c1)NC1CCN(c2ccnc3cc(Cl)ccc23)C1` (stereo not drawn), the XC50 worked out at 154 nM.

The compound `COc1ccc2nccc([C@@H](O)CN3CCC(NCCOc4ccccc4[N+](=O)[O-])CC3)c2c1` yielded an XC50 of 384 nM.

In the case of `CCC[C@@H]([C@@H](CC1CCCCC1)C(=O)N[C@H](C(=O)Nc1nccs1)[C@H](C)O)N(O)C=O`, the XC50 is 148 nM.

Turning to `CC1(C)NC(N)=NC(=N)N1OCCSc1ccccc1`, the XC50 came out at 3.2 nM.

Consider `CC1(C)CCCC(=Cc2ccc(Br)cc2)C1(O)Cn1ccnc1` (stereo not drawn), for which the XC50 was determined as 791 nM.

`COc1cc(NC(=O)CCCCCCCCN2CCN(C)CC2)c2ncccc2c1` displayed an XC50 of 891 nM.

The compound `CN1CCN(CC(=O)Nc2ccc(-c3cccc(-c4nc5cc(F)ccc5[nH]4)c3)cc2)CC1` showed an XC50 of 832 nM.

Consider `O=C(Nc1cccc(F)c1)N1CCC(NS(=O)(=O)c2ccc(Br)cc2)CC1`, for which the XC50 worked out at 979 nM.

Compound `FC(F)(F)c1ccc2[nH]c(-c3ccc(-c4ccc(CNCCN5CCNCC5)cc4)cc3)nc2c1` returned an XC50 of 1120 nM.

Compound `Cc1cc(N[C@@H](Cc2ccccc2)C(=O)Nc2ccccc2)nc(NCCc2cccs2)n1` showed an XC50 of 796 nM.

In the case of `O=C(NC1CC1)c1cnc(N2CCC(c3ccccc3)CC2)c(Cl)c1`, the XC50 worked out at 851 nM.

`COc1ccc(Nc2cc(C)c3cc(NC(=O)c4ccncc4)ccc3n2)cc1` gave an XC50 of 908 nM.

In the case of `O=S(=O)(NCCN1CCCC1)c1ccc(-c2ccc(CNCc3ccccc3)cc2)s1`, the XC50 was found to be 849 nM.

In the case of `FC(F)(F)c1ccc2[nH]c(-c3ccc(-c4cccc(CNCc5cnn(-c6ccccc6)n5)c4)cc3)nc2c1`, the XC50 stood at 652 nM.

In turn, `CC(C)(C)C(=O)Nc1c(-c2cc(=O)oc3cc4c(cc23)CCC4)oc2ccccc12` yielded an XC50 of 1260 nM.

In turn, `N#Cc1ccc2c(c1)CN(C1CCC(NC(=O)c3cc(-c4ccc(Cl)cc4)cs3)CC1)CCC2` (stereo not drawn) showed an XC50 of 956 nM.

On to `OC[C@H](Nc1nc(C(Oc2ccccc2)c2ccccc2)nc2[nH]ncc12)c1ccccc1` (stereo partly drawn), for which the XC50 came out at 854 nM.

On to `COc1ccc(-c2cc(NCc3ccc(-n4ccnc4)cc3)nc(Nc3ccccc3)n2)cc1`, for which the XC50 came to 966 nM.

As for `CCCCCC(C)N/C(=N/c1ccccc1Br)Nc1ccc([N+](=O)[O-])cc1O` (stereo not drawn), the XC50 turned out to be 615 nM.

For the compound `Cc1ccc(S(=O)(=O)NC2CCN(CCNC(=O)Nc3cc(C)nc4ccccc34)C2)cc1` (stereo not drawn), the XC50 stood at 1040 nM.

Compound `O=[N+]([O-])c1ccc(Oc2ccccc2CNCC2CCN(CC3CCCCC3)CC2)cc1` came in with an XC50 of 903 nM.
